# Laboratory results from patent US8288424B2, “Substituted tetrahydroimidazopyridine compounds and the use thereof in the treatment of pain and other conditions” (Gruenenthal GmbH, priority 2008, dated 2012).
# Target: T1, KCNQ2/3 channels (Homo sapiens, UniProt O43525+O43526)
# T1 construct: expressed in transfected cells; host or cells: CHO-K1
# Assay: Fluorescence assay using a voltage-sensitive dye
# Format: cell-based
# Settings: 10 μmol test substance; CHO-K1 cells expressing KCNQ2/3 channels; agonistic activity; read-out: % Stimulation [10 μmol] Average
# Experimental: Fluorescence Assay Using a Voltage-Sensitive Dye
# […] CHO-K1 cells expressing KCNQ2/3 channels are cultivated adherently at 37° C., 5% CO2 and 95% humidity in cell culture bottles (e.g. 80 cm^2 TC flasks, Nunc) with MEM Alpha Medium (1×, liquid, Invitrogen, #22571), 10% foetal calf serum (FCS) (Invitrogen, #10270-106, heat-inactivated) and the necessary selection antibiotics. Before being spread out for the measurements, the cells are washed with a 1×DPBS buffer without Ca^2+/Mg^2+ (e.g. Invitrogen, #14190-094) and detached from the bottom of the culture vessel by means of Accutase (PAA Laboratories, #L11-007) (incubation with Accutase for 15 min at 37° C.). The cell count then present is determined using a CASY™ cell counter (TCC model, Schärfe System) in order subsequently to apply 20,000 cells/well/100 μl of the described nutrient medium to 96-well measuring plates of the Corning™ CellBIND™ type (flat clear-bottom black polystyrene microplates, #3340). Incubation is then carried out for one hour at room temperature, without gassing or adjusting the humidity, followed by incubation for 24 hours at 37° C., 5% CO2 and 95% humidity.
# The voltage-sensitive fluorescent dye from the Membrane Potential Assay Kit (Red bulk format part R8123 for FLIPR, Molecular Devices™) is prepared by dissolving the contents of a vessel of Membrane Potential Assay Kit Red Component A in 200 ml of extracellular buffer (ES buffer, 120 mM NaCl, 1 mM KCl, 10 mM HEPES, 2 mM CaCl2, 2 mM MgCl2, 10 mM glucose; pH 7.4). After removal of the nutrient medium, the cells are washed with 200 μl of ES buffer, then covered with a layer of 100 μl of the dye solution prepared above and incubated for 45 min at room temperature with exclusion of light.
# The fluorescence measurements are carried out with a BMG Labtech FLUOstar™ or BMG Labtech POLARstar™ instrument (525 nm excitation, 560 nm emission, bottom-read mode). After incubation of the dye, 50 μl of the substances to be tested in the desired concentrations, or 50 μl of ES buffer for control purposes, are introduced into separate cavities of the measuring plate and incubated for 30 min at room temperature whilst being shielded from light. The fluorescence intensity of the dye is then measured for 5 min and the fluorescence value F1 of each well is thus determined at a given, constant time. 15 μl of a […] KCl solution ([…]) are then added to each well. The change in fluorescence is subsequently measured until all relevant measured values have been obtained (mainly 5-30 min). At a given time after KCl application, a fluorescence value F2 is determined, in this case at the time of the fluorescence peak.
# For calculation, the fluorescence intensity F2 is compared with the fluorescence intensity F1, and the agonistic activity of the target compound on the potassium channel is determined therefrom. F2 and F1 are calculated as follows:
# [formula] In order to determine whether a substance has an agonistic activity,
# [formula] for example, can be compared with
# [formula] of control cells.
# [formula] is determined by adding to the reaction batch only the buffer solution instead of the substance to be tested, determining the value F1K of the fluorescence intensity, adding the potassium ions as described above and measuring a value F2K of the fluorescence intensity. Then F2K and F1K are calculated as follows:
# [formula] A substance has an agonistic activity on the potassium channel when
# [formula] is greater than
# [formula] Independently of the comparison of
# [formula] it is also possible to conclude that a target compound has an agonistic activity if an increase in
# [formula] is to be observed as the dosage of the target compound increases. Calculations of EC50 and IC50 values are carried out with the aid of Prism 4 software (GraphPad Software™).
row,activation at 10 µM [%],SMILES
1,16.8,"CCCCCNC(=O)c1cn2c(n1)CCC(c1cc(C)c(OC)c(C)c1)C2 (stereo not drawn) [Compound 15, 6-(4-Methoxy-3,5-dimethylphenyl)-N-pentyl-5,6,7,8-tetrahydroimidazo[1,2-a]pyridine-2-carboxamide]"
2,32.2,"Cc1ccccc1C1CCc2nc(C(=O)N3CCCC3)cn2C1 (stereo not drawn) [Compound 34, Pyrrolidin-1-yl(6-o-tolyl-5,6,7,8-tetrahydroimidazo[1,2-a]pyridin-2-yl)methanone]"
3,16.2,"O=C(c1cn2c(n1)CCC(c1ccccc1)C2)N1CCC(Cc2ccccc2)CC1 (stereo not drawn) [Compound 1, (4-Benzylpiperidin-1-yl)(6-phenyl-5,6,7,8-tetrahydroimidazo[1,2-a]pyridin-2-yl)methanone]"
4,63.5,"O=C(c1cn2c(n1)CCC(c1ccc(F)cc1)C2)N1CCN(c2cccc(C(F)(F)F)c2)CC1 (stereo not drawn) [Compound 47, (6-(4-Fluorophenyl)-5,6,7,8-tetrahydroimidazo[1,2-a]pyridin-2-yl)(4-(3-(trifluoromethyl)phenyl)piperazin-1-yl)methanone]"
5,30,"COc1ccc(F)cc1C1CCc2nc(C(=O)N3CCN(c4cccc(C(F)(F)F)c4)CC3)cn2C1 (stereo not drawn) [Compound 7, (6-(5-Fluoro-2-methoxyphenyl)-5,6,7,8-tetrahydroimidazo[1,2-a]pyridin-2-yl)(4-(3-(trifluoromethyl)phenyl)piperazin-1-yl)methanone]"
6,24.7,"Cc1cc(C2CCc3nc(C(=O)NC(C)c4ccccc4)cn3C2)ccc1F (stereo not drawn) [Compound 14, 6-(4-Fluoro-3-methylphenyl)-N-(1-phenylethyl)-5,6,7,8-tetrahydroimidazo[1,2-a]pyridine-2-carboxamide]"
7,82.2,"O=C(c1cn2c(n1)CCC(c1cccc(F)c1)C2)N1CCC(Cc2ccccc2)CC1 (stereo not drawn) [Compound 61, (4-Benzylpiperidin-1-yl)(6-(3-fluorophenyl)-5,6,7,8-tetrahydroimidazo[1,2-a]pyridin-2-yl)methanone]"
8,115,"COc1cccc(C2CCc3nc(C(=O)N4CCN(c5cccc(C(F)(F)F)c5)CC4)cn3C2)c1 (stereo not drawn) [Compound 71, (6-(3-Methoxyphenyl)-5,6,7,8-tetrahydroimidazo[1,2-a]pyridin-2-yl)(4-(3-(trifluoromethyl)phenyl)piperazin-1-yl)methanone]"
9,20.7,"CC1(C)CC2CC(C)(CN2C(=O)c2cn3c(n2)CCC(c2cccc(F)c2)C3)C1 (stereo not drawn) [Compound 4, (6-(3-Fluorophenyl)-5,6,7,8-tetrahydroimidazo[1,2-a]pyridin-2-yl)(1,3,3-trimethyl-6-azabicyclo[3.2.1]octan-6-yl)methanone]"
10,29.4,"O=C(c1cn2c(n1)CCC(c1ccc(F)cc1)C2)N1CCC(Cc2ccccc2)CC1 (stereo not drawn) [Compound 41, (4-Benzylpiperidin-1-yl)(6-(4-fluorophenyl)-5,6,7,8-tetrahydroimidazo[1,2-a]pyridin-2-yl)methanone]"
11,17.8,"COc1ccc(C2CCc3nc(C(=O)NCc4cccc(C(F)(F)F)c4)cn3C2)cc1 (stereo not drawn) [Compound 39, 6-(4-Methoxyphenyl)-N-(3-(trifluoromethyl)benzyl)-5,6,7,8-tetrahydroimidazo[1,2-a]pyridine-2-carboxamide]"
12,20.9,"Cc1ccccc1C1CCc2nc(C(=O)N3CCN(c4cccc(C(F)(F)F)c4)CC3)cn2C1 (stereo not drawn) [Compound 35, (6-o-Tolyl-5,6,7,8-tetrahydroimidazo[1,2-a]pyridin-2-yl)(4-(3-(trifluoromethyl)-phenyl)piperazin-1-yl)methanone]"
13,20,"O=C(c1cn2c(n1)CCC(c1ccccc1)C2)N(CCc1ccccc1)Cc1ccccc1 (stereo not drawn) [Compound 2, N-Benzyl-N-phenethyl-6-phenyl-5,6,7,8-tetrahydroimidazo[1,2-a]pyridine-2-carboxamide]"
14,88.8,Cc1ccc(C2CCc3nc(C(=O)N4CCC(Cc5ccccc5)CC4)cn3C2)cc1 (stereo not drawn) [Compound 73]
15,34.2,"CCc1ccc(C2CCc3nc(C(=O)NC(C)CCc4ccccc4)cn3C2)cc1 (stereo not drawn) [Compound 52, 6-(4-Ethylphenyl)-N-(4-phenylbutan-2-yl)-5,6,7,8-tetrahydroimidazo[1,2-a]pyridine-2-carboxamide]"
16,16.3,"O=C(NCc1ccccc1)c1cn2c(n1)CCC(c1cc(C(F)(F)F)cc(C(F)(F)F)c1)C2 (stereo not drawn) [Compound 43, N-Benzyl-6-(3,5-bis(trifluoromethyl)phenyl)-5,6,7,8-tetrahydroimidazo[1,2-a]pyridine-2-carboxamide]"
17,26.2,"Cc1cccc(C2CCc3nc(C(=O)N4CCCC4)cn3C2)c1 (stereo not drawn) [Compound 29, Pyrrolidin-1-yl(6-m-tolyl-5,6,7,8-tetrahydroimidazo[1,2-a]pyridin-2-yl)methanone]"
18,25.7,"COc1cccc(C2CCc3nc(C(=O)N4CCC(Cc5ccccc5)CC4)cn3C2)c1 (stereo not drawn) [Compound 50, (4-Benzylpiperidin-1-yl)(6-(3-methoxyphenyl)-5,6,7,8-tetrahydroimidazo[1,2-a]pyridin-2-yl)methanone]"
19,46.7,"Cc1ccc(N2CCN(C(=O)c3cn4c(n3)CCC(c3ccc(F)c(C)c3)C4)CC2)cc1 (stereo not drawn) [Compound 64, (6-(4-Fluoro-3-methylphenyl)-5,6,7,8-tetrahydroimidazo[1,2-a]pyridin-2-yl)(4-(4-methylphenyl)piperazin-1-yl)methanone]"
20,40.8,"Cc1cc(C2CCc3nc(C(=O)N4CCN(c5ccc(C(F)(F)F)cc5)CC4)cn3C2)ccc1F (stereo not drawn) [Compound 62, (6-(4-Fluoro-3-methylphenyl)-5,6,7,8-tetrahydroimidazo[1,2-a]pyridin-2-yl)(4-(4-(trifluoromethyl)phenyl)piperazin-1-yl)methanone]"
21,47.9,"Cc1cc(C2CCc3nc(C(=O)NCCC4CCCCC4)cn3C2)ccc1F (stereo not drawn) [Compound 88, N-(2-Cyclohexylethyl)-6-(4-fluoro-3-methylphenyl)-5,6,7,8-tetrahydroimidazo[1,2-a]pyridine-2-carboxamide]"

# Same assay, conditions: CHO-K1 cells expressing KCNQ2/3 channels; agonistic activity
row,EC50 [µM],SMILES
1,0.08,"Cc1cc(C)cc(C2CCc3nc(C(=O)N4CCN(c5cccc(C(F)(F)F)c5)CC4)cn3C2)c1 (stereo not drawn) [Compound 77, (6-(3,5-Dimethylphenyl)-5,6,7,8-tetrahydroimidazo[1,2-a]pyridin-2-yl)(4-(3-(trifluoromethyl)phenyl)piperazin-1-yl)methanone]"
2,2.33,"O=C(c1cn2c(n1)CCC(c1ccc(Oc3ccccc3)cc1)C2)N1CCCC1 (stereo not drawn) [Compound 25, (6-(4-Phenoxyphenyl)-5,6,7,8-tetrahydroimidazo[1,2-a]pyridin-2-yl)(pyrrolidin-1-yl)methanone]"
3,6.21,"CCCCNC(=O)c1cn2c(n1)CCC(c1ccc(Oc3ccccc3)cc1)C2 (stereo not drawn) [Compound 19, N-Butyl-6-(4-phenoxyphenyl)-5,6,7,8-tetrahydroimidazo[1,2-a]pyridine-2-carboxamide]"
4,9.38,"CCCCCNC(=O)c1cn2c(n1)CCC(c1ccc(Oc3ccccc3)cc1)C2 (stereo not drawn) [Compound 28, N-Pentyl-6-(4-phenoxyphenyl)-5,6,7,8-tetrahydroimidazo[1,2-a]pyridine-2-carboxamide]"
5,11.9,"COc1ccc(F)cc1C1CCc2nc(C(=O)N3CC4(C)CC3CC(C)(C)C4)cn2C1 (stereo not drawn) [Compound 9, (6-(5-Fluoro-2-methoxyphenyl)-5,6,7,8-tetrahydroimidazo[1,2-a]pyridin-2-yl)(1,3,3-trimethyl-6-azabicyclo[3.2.1]octan-6-yl)methanone]"
6,6.4,"COc1cccc(C2CCc3nc(C(=O)NC(C)CCc4ccccc4)cn3C2)c1 (stereo not drawn) [Compound 60, 6-(3-Methoxyphenyl)-N-(4-phenylbutan-2-yl)-5,6,7,8-tetrahydroimidazo[1,2-a]pyridine-2-carboxamide]"
